These results are taken from patent US20100166789A1, “PROTEINS FOR USE IN DIAGNOSING AND TREATING INFECTION AND DISEASE” (The Regents of the University of Colorado, priority 2008, published 2010).

No end group written: not given here. *: point of attachment. Biotin = O=C1N[C@H]2[C@H](CS[C@H]2CCCCC(=O)*)N1

Assay [1] concerns the target gp41 HIV-1 envelope protein (gp41 fragment) of Example 14 (HIV-1). Briefly: native gel electrophoresis, quantitative analysis.
In assay [2] the test system is cell surface CLIP on Raji or Daudi cells. To be noted: 24 and 48 hours; cited from earlier work.
The test system of assay [3] is cell surface CD74 on Raji or Daudi cells. The conditions noted are these: 24 and 48 hours; cited from earlier work.
Assay [4] concerns cell surface bound CLIP on Raji and Daudi cells. Put plainly: Competition of synthetic peptides with cell surface CLIP (Fitc anti-human CLIP). The assay is classed as cell-based. To be noted: biotinylated peptides. The source says: Based on a computational model comparing the peptide content of TNP mixture and identifying those peptides that would have the likeliest ability to compete for the peptide/antigen binding site for MHC class II (human HLA-DR, DP, and DQ), several peptide candidates were synthesized and examined for activity. The purpose of the study was to determine if synthetic peptides can compete for binding with CLIP peptides as measured with either Fitc anti-human CLIP antibody or, comparatively in the case of biotinylated peptides, with Streptavidin.
Cell Culture Conditions: The Raji and Daudi cell lines were purchased from American Type Culture Collection, were thawed, and grown in RPMI 1640 medium supplemented with standard supplements, including 10% fetal calf serum, gentamycin, penicillin, streptomycin, sodium pyruvate, HEPES buffer, 1-glutamine, and 2-ME.
Protocol: Cells were plated into a 12 well plate with 3 mls total volume containing approximately 1.5×10^6/well for Daudi cells and 3.0×10^6/well for Raji cells. Treatment groups included no treatment as control; MKN 3 and MKN 5 at 50 microMolar final concentration based on the reported molarity of the synthesized compounds.
The cells were incubated at 37° C. in an atmosphere containing 5% CO2 and approximately 92% humidity. The cells were incubated for 4 and 24 hours. At each time point, the cells from that experimental time were harvested and stained for flow cytometric analysis of cell surface expression of CLIP (MHC Class II invariant peptide, human) by using the commercially available (Becton/Dickinson/PHarmingen) anti-human CLIP Fitc. Catalogue #555981 versus Streptavidin.
Harvested cells were stained using standard staining procedure that called for a 1:100 dilution of Fitc-anti-human CLIP or isotype control versus 1:200 dilution of the commercially prepared Streptavidin. Following staining on ice for 25 minutes, cells were washed with PBS/FCS and resuspended in 100 microliters and added to staining tubes containing 400 microliters of PBS. Samples were acquired and analyzed on a Coulter Excel Flow Cytometer.
In the Histogram analyses of FIGS. 4-6 the Y axis represents cell number of the 5000 live cells versus the X axis which is a reflection of relative Fitc fluorescence versus Streptavidin-PE (eBioscience, Cat. #12-4317) that will bind with high affinity to cell-bound biotinylated peptides. The distance between the histogram from the isotype control staining versus the histogram reflecting the specific stain and is a measure of level of cell surface CLIP or the biotinylated peptide when stained with Streptavidin on a population of live Raji or Daudi cells as indicated.

Turning to “thymus nuclear protein (TNP) extract from calf thymus”, the binding stoichiometry (TNP to gp41) (gp41 per 1 TNP (ratio 1:0.8)) in assay [1] came out at 0.8.
In the case of SGG GSK MRM ATP LLM QAL Y [MKN1], the “Cell surface CLIP levels” value in assay [2] is recorded as “alters”. For the same substance, the “Cell surface CD74 levels” value in assay [3] is listed as “alters”.
For “FRIMAVLAS [SGG GAN SGF RIM AVL ASG GQY, unmodified form is MKN.4]”, the figures for the “Cell surface bound CLIP (Fitc-Anti-CLIP)” value in assay [4] (4 hours) and in assay [4] (24 hours) were “small decreases” and “significant decreases”, respectively.
Regarding “SGG GKA LVQ NDT LLQ VKG (Biotin-SGGGKALVQNDTLLQVKG) [TNP1]”, the “Cell surface bound CLIP (Fitc-Anti-CLIP)” value in assay [4] (4 hours) is reported as “small decreases”; in assay [4] (24 hours), “significant decreases”.
